# Laboratory results as given in patent US12258328B2, “6-membered heteroaryl-containing aminopyridine compounds as EGFR inhibitors” (YUHAN CORPORATION, priority 2021, dated 2025).
# Like-named read-outs stand apart in the source and are kept apart here.
# How the values were obtained:
# EGFR L858R/C797S = EGFR L858R/C797S (Homo sapiens, UniProt P00533, C797S/L858R); test: Biochemical EGFR kinase assay (Lance Ultra TR-FRET), double mutant L858R/C797S
# How it was run: (§1)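 Step 1: compound in kinase buffer, 0.003–10 μM. Step 2: kinase reaction 1 h at room temperature. Step 4: TR-FRET read at 615/665 nm; IC50 calculated.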
# EGFR del19/C797S = EGFR del19/C797S (Homo sapiens, UniProt P00533, C797S/DEL746-750); test: Biochemical EGFR kinase assay (Lance Ultra TR-FRET), double mutant del19/C797S
# How it was run: as §1
# EGFR del19/T790M/C797S = EGFR del19/T790M/C797S (Homo sapiens, UniProt P00533, C797S/DEL746-750/T790M); test: Biochemical EGFR kinase assay (Lance Ultra TR-FRET), triple mutant del19/T790M/C797S
# Sequence of EGFR del19/T790M/C797S (P00533 with tags, fused parts or gaps DEL746-750/T790M/C797S): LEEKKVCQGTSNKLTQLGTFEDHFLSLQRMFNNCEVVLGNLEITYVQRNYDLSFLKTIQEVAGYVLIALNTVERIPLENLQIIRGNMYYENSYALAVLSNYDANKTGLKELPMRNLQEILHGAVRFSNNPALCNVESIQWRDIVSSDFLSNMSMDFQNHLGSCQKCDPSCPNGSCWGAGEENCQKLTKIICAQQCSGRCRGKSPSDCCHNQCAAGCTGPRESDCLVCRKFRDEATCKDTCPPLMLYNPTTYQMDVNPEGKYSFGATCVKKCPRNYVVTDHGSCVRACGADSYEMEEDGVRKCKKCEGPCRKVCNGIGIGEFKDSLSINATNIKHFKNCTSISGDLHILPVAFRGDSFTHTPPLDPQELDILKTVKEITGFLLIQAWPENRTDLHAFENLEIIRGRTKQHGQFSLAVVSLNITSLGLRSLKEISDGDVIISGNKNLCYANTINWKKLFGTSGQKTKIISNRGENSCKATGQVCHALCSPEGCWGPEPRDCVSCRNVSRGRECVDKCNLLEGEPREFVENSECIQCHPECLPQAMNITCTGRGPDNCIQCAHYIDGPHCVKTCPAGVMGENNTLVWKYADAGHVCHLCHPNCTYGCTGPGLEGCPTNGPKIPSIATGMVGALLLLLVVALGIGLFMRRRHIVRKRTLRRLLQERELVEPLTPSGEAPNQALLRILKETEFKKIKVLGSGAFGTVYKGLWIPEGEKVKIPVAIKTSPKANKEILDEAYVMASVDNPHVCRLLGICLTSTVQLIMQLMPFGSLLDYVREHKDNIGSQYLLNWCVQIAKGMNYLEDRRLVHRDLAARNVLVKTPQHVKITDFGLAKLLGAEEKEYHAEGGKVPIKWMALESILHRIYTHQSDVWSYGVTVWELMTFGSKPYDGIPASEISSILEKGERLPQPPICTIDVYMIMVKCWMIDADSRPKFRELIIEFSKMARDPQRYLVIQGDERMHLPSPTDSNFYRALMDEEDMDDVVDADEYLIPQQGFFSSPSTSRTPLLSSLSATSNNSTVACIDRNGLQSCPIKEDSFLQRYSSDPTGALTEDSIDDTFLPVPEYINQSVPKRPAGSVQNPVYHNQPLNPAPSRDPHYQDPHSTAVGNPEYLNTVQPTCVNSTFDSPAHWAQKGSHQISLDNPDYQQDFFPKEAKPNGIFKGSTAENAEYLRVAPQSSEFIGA
# How it was run: as §1
# EGFR L858R/T790M/C797S = EGFR L858R/T790M/C797S (Homo sapiens, UniProt P00533, C797S/L858R/T790M); test: Biochemical EGFR kinase assay (Lance Ultra TR-FRET), triple mutant L858R/T790M/C797S
# Sequence of EGFR L858R/T790M/C797S (P00533 25-1210 T790M/C797S/L858R): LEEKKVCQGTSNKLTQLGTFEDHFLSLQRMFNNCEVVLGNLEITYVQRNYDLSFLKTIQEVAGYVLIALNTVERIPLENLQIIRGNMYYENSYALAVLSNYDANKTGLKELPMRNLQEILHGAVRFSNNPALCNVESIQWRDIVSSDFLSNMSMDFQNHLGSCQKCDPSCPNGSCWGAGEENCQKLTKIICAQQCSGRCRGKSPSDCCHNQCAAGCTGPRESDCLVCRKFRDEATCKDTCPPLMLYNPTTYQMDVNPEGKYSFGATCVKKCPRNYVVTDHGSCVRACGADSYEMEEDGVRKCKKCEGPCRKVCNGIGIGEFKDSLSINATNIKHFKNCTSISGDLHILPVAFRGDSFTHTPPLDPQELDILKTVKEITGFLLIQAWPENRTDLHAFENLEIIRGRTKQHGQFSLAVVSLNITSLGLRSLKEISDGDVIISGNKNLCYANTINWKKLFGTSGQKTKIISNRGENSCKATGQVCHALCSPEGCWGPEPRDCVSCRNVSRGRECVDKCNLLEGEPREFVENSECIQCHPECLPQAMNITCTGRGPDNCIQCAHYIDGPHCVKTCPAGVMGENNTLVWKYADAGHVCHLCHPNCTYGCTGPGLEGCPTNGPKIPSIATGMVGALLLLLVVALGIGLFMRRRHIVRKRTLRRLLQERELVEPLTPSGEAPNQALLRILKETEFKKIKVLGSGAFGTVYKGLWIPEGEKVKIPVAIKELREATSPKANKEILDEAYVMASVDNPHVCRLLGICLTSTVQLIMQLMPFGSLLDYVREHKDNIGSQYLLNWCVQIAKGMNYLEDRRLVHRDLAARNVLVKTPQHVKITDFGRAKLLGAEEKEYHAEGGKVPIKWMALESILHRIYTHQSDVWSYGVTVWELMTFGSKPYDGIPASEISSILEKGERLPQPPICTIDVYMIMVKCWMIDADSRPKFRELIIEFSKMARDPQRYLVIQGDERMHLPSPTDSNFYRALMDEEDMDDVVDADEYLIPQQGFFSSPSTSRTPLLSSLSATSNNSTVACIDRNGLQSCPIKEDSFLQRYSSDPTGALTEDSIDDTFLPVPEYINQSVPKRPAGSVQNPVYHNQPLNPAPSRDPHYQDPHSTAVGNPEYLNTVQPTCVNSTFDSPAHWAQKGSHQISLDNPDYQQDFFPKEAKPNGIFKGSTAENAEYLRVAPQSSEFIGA
# How it was run: as §1
# EGFR wildtype = EGFR wildtype (Homo sapiens, UniProt P00533); test: Biochemical EGFR kinase assay (Lance Ultra TR-FRET), wildtype
# Sequence of EGFR wildtype (P00533 25-1210): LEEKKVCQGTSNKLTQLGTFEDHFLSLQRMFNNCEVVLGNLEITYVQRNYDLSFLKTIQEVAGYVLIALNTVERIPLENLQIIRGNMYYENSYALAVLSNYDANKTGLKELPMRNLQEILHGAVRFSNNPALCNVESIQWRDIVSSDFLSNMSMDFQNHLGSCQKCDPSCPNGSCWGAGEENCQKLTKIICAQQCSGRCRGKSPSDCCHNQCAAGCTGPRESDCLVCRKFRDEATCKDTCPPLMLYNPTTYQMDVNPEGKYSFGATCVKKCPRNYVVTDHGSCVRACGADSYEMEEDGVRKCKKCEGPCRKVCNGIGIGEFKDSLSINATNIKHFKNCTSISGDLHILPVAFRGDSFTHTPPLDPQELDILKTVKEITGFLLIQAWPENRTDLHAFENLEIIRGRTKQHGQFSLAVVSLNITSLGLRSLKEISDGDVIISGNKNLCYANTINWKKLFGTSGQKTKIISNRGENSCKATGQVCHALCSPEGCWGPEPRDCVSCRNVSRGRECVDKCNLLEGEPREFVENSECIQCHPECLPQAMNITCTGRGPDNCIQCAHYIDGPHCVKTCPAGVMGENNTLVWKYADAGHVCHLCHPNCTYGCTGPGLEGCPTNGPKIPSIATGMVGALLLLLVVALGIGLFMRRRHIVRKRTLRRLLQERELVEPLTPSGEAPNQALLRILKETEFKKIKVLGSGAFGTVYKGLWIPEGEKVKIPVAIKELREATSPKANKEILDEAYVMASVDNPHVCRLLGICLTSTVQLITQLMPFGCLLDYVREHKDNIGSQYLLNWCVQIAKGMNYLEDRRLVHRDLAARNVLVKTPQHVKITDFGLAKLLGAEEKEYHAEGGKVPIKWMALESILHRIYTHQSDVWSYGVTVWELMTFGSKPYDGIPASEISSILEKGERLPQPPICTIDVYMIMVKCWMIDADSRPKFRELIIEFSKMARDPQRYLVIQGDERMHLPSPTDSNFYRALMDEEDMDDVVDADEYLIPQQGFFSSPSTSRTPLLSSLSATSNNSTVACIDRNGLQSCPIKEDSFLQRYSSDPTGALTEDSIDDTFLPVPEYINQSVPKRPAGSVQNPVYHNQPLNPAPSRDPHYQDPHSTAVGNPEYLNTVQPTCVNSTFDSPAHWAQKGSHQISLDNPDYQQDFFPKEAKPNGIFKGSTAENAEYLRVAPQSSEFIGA
# How it was run: as §1
# [1] = IC50 L858R/C797S (nM) 100 μM ATP, 100 μM ATP
# [2] = Km ATP, read-out: IC50 L858R/C797S (nM) Km ATP
# [3] = IC50 del19/C797S (nM) 100 μM ATP, 100 μM ATP
# [4] = Km ATP, read-out: IC50 del19/C797S (nM) Km ATP
# [5] = IC50 del19/T790M/C797S (nM) 100 μM ATP, 100 μM ATP
# [6] = Km ATP, read-out: IC50 del19/T790M/C797S (nM) Km ATP
# [7] = IC50 L858R/T790M/C797S (nM) 100 μM ATP, 100 μM ATP
# [8] = Km ATP, read-out: IC50 L858R/T790M/C797S (nM) Km ATP
# [9] = IC50 WT (nM) 100 μM ATP, 100 μM ATP
# [10] = Km ATP, read-out: IC50 WT (nM) Km ATP
# [11] = ATP at Km, read-out: IC50 del19/C797S, Km ATP
# [12] = ATP at Km, read-out: IC50 del19/T790M/C797S, Km ATP
# [13] = IC50 del19/T790M/C797S, 100 μM ATP
# [14] = ATP at Km, read-out: IC50 L858R/T790M/C797S, Km ATP
# [15] = IC50 L858R/T790M/C797S, 100 μM ATP
# [16] = ATP at Km, read-out: IC50 WT, Km ATP
# [17] = ATP at Km, read-out: IC50 L858R/C797S, Km ATP
# Sequence of EGFR L858R/C797S (P00533 25-1210 C797S/L858R): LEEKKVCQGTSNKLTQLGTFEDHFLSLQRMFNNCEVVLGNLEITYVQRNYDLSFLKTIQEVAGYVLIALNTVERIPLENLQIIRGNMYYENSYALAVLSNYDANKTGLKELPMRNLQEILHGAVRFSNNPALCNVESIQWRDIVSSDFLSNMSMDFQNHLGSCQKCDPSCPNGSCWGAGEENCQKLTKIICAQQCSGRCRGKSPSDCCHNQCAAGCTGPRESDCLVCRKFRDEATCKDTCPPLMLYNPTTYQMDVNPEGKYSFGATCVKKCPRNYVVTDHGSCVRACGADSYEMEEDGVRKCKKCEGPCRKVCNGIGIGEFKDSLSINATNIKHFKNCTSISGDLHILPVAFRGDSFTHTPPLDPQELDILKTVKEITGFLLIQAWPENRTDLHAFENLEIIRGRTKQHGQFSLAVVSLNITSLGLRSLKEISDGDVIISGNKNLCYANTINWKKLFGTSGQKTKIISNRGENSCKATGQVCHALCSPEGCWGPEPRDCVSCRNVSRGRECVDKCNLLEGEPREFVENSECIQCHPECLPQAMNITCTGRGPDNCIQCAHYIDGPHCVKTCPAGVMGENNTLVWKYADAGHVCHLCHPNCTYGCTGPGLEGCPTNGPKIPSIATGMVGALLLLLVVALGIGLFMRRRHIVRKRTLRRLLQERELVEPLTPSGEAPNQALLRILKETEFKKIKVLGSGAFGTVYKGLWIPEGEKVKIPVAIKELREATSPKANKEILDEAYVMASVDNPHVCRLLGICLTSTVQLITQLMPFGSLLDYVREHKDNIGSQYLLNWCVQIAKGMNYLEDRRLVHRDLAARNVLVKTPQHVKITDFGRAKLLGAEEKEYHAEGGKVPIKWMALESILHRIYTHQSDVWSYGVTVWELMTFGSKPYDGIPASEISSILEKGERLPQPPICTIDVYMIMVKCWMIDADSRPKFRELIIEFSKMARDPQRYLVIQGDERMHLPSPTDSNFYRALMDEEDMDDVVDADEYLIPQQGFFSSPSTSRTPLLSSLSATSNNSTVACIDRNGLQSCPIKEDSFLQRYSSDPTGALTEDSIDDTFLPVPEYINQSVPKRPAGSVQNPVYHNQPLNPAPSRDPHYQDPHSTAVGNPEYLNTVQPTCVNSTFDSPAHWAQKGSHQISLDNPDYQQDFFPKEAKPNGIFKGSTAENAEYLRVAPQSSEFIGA
IC50 (EGFR L858R/C797S; [1]) [nM],IC50 (EGFR L858R/C797S; [2]) [nM],IC50 (EGFR del19/C797S; [3]) [nM],IC50 (EGFR del19/C797S; [4]) [nM],IC50 (EGFR del19/T790M/C797S; [5]) [nM],IC50 (EGFR del19/T790M/C797S; [6]) [nM],IC50 (EGFR L858R/T790M/C797S; [7]) [nM],IC50 (EGFR L858R/T790M/C797S; [8]) [nM],IC50 (EGFR wildtype; [9]) [nM],IC50 (EGFR wildtype; [10]) [nM],"IC50 (EGFR L858R/C797S; IC50 L858R/C797S, 100 μM ATP) [nM]",IC50 (EGFR del19/C797S; [11]) [nM],"IC50 (EGFR del19/C797S; IC50 del19/C797S, 100 μM ATP) [nM]",IC50 (EGFR del19/T790M/C797S; [12]) [nM],IC50 (EGFR del19/T790M/C797S; [13]) [nM],IC50 (EGFR L858R/T790M/C797S; [14]) [nM],IC50 (EGFR L858R/T790M/C797S; [15]) [nM],IC50 (EGFR wildtype; [16]) [nM],"IC50 (EGFR wildtype; IC50 WT, 100 μM ATP) [nM]",IC50 (EGFR L858R/C797S; [17]) [nM],SMILES
0.7,0.1,0.3,0.3,0.1,0.1,0.1,0.04,61.5,0.3,–,–,–,–,–,–,–,–,–,–,"O=S(=O)(C1CC1)n1cc(-c2nccc(Nc3cc(N[C@H]4CC[C@@H](CO)CC4)c(-c4ccc(CN5CCC(O)CC5)cn4)cn3)n2)cn1 [Example 99, 1-((6′-((2-(1-(Cyclopropylsulfonyl)-1H-pyrazol-4-yl)pyrimidin-4-yl)amino)-4′-(((1s,4s)-4-(hydroxymethyl)cyclohexyl)amino)-[2,3′-bipyridin]-5-yl)methyl) piperidin-4-ol]"
–,–,–,–,–,–,–,–,–,–,–,16.9,–,31,–,22,–,365,–,85.3,"CC(O)(c1ccc(-c2cnc(Nc3ccnc(-c4cnn(S(=O)(=O)C5CC5)c4)n3)cc2NC2CCC(F)CC2)nc1)C(F)(F)F (centres unmarked) [Example 265, 2-(6′-((2-(1-(Cyclopropylsulfonyl)-1H-pyrazol-4-yl)pyrimidin-4-yl)amino)-4′-(((1s,4s)-4-fluorocyclohexyl)amino)-[2,3′-bipyridin]-5-yl)-1,1,1-trifluoropropan-2-ol]"
13,4.1,2.3,2.2,1.7,2.1,1.4,1.1,1560,4,–,–,–,–,–,–,–,–,–,–,"O=S(=O)(C1CC1)n1cc(-c2nccc(Nc3cc(N[C@H]4CC[C@@H](CO)CC4)c(-c4cc(C(F)F)ccn4)cn3)n2)cn1 [Example 77, ((1s,4s)-4-((6′-((2-(1-(Cyclopropylsulfonyl)-1H-pyrazol-4-yl)pyrimidin-4-yl)amino)-4-(difluoromethyl)-[2,3′-bipyridin]-4′-yl)amino)cyclohexyl)methanol]"
–,–,–,–,–,–,–,–,–,–,18.5,1.8,7.6,3.5,1.2,1,1.7,–,> 10000,1.6,"CN(C)S(=O)(=O)c1ccc(-c2cnc(Nc3ccnc(-c4cnn(S(=O)(=O)C5CC5)c4)n3)cc2N[C@H]2CC[C@@H](C(C)(C)O)CC2)nc1 [Example 165, 6′-((2-(1-(Cyclopropylsulfonyl)-1H-pyrazol-4-yl)pyrimidin-4-yl)amino)-4′-(((1s,4s)-4-(2-hydroxypropan-2-yl)cyclohexyl)amino)-N,N-dimethyl-[2,3′-bipyridine]-5-sulfonamide]"
–,–,–,–,–,–,–,–,–,–,11.4,2.5,2.6,0.9,1.1,0.7,1.2,18.5,> 10000,4.1,"O=S(=O)(C1CC1)n1cc(-c2nccc(Nc3cc(N[C@H]4CC[C@@H](NCC(F)F)CC4)c(-c4cccc(F)n4)cn3)n2)cn1 [Example 275, N^6′-(2-(1-(Cyclopropylsulfonyl)-1H-pyrazol-4-yl)pyrimidin-4-yl)-N^4′-((1s,4s)-4-((2,2-difluoroethyl)amino)cyclohexyl)-6-fluoro-[2,3′-bipyridine]-4′,6′-diamine]"
–,–,–,–,–,–,–,–,–,–,–,0.3,0.3,0.1,0.2,0.1,0.2,–,> 10000,0.4,"CS(=O)(=O)c1ccc(-c2cnc(Nc3ccnc(-c4cnn(S(=O)(=O)C5CC5)c4)n3)cc2N[C@H]2CC[C@@](C)(O)CC2)nc1 [Example 156, (1s,4s)-4-((6′-((2-(1-(Cyclopropylsulfonyl)-1H-pyrazol-4-yl)pyrimidin-4-yl)amino)-5-(methylsulfonyl)-[2,3′-bipyridin]-4′-yl)amino)-1-methylcyclohexan-1-ol]"
–,–,–,–,–,–,–,–,–,–,15,0.5,1.3,0.5,0.8,0.2,0.7,5.1,> 10000,3,"CC(C)(O)[C@H]1CC[C@@H](Nc2cc(Nc3ccnc(-c4cnn(S(=O)(=O)C5CC5)c4)n3)ncc2-c2ccc(S(C)(=O)=O)cn2)CC1 [Example 160, 2-((1s,4s)-4-((6′-((2-(1-(Cyclopropylsulfonyl)-1H-pyrazol-4-yl)pyrimidin-4-yl)amino)-5-(methylsulfonyl)-[2,3′-bipyridin]-4′-yl)amino)cyclohexyl)propan-2-ol]"

# The next lines start with the compound.
SMILES,IC50 (EGFR L858R/C797S; [1]) [nM],IC50 (EGFR L858R/C797S; [2]) [nM],IC50 (EGFR del19/C797S; [3]) [nM],IC50 (EGFR del19/C797S; [4]) [nM],IC50 (EGFR del19/T790M/C797S; [5]) [nM],IC50 (EGFR del19/T790M/C797S; [6]) [nM],IC50 (EGFR L858R/T790M/C797S; [7]) [nM],IC50 (EGFR L858R/T790M/C797S; [8]) [nM],IC50 (EGFR wildtype; [9]) [nM],IC50 (EGFR wildtype; [10]) [nM],"IC50 (EGFR L858R/C797S; IC50 L858R/C797S, 100 μM ATP) [nM]",IC50 (EGFR del19/C797S; [11]) [nM],"IC50 (EGFR del19/C797S; IC50 del19/C797S, 100 μM ATP) [nM]",IC50 (EGFR del19/T790M/C797S; [12]) [nM],IC50 (EGFR del19/T790M/C797S; [13]) [nM],IC50 (EGFR L858R/T790M/C797S; [14]) [nM],IC50 (EGFR L858R/T790M/C797S; [15]) [nM],IC50 (EGFR wildtype; [16]) [nM],"IC50 (EGFR wildtype; IC50 WT, 100 μM ATP) [nM]",IC50 (EGFR L858R/C797S; [17]) [nM]
"C[C@]1(O)CC[C@@H](Nc2cc(Nc3ccnc(-c4cnn(S(=O)(=O)C5CC5)c4)n3)ncc2-c2ccc(N3CC(F)(F)C3)cn2)CC1 [Example 224, (1s,4s)-4-((6′-((2-(1-(Cyclopropylsulfonyl)-1H-pyrazol-4-yl)pyrimidin-4-yl)amino)-5-(3,3-difluoroazetidin-1-yl)-[2,3′-bipyridin]-4′-yl)amino)-1-methylcyclohexan-1-ol]",–,–,–,–,–,–,–,–,–,–,171,2.1,3.5,2,1.6,0.4,1.4,5.2,> 10000,–
"C[C@]1(O)CC[C@@H](Nc2cc(Nc3ccnc(-c4cnn(S(=O)(=O)C5CC5)c4)n3)ncc2-c2ccc(C(F)(F)F)c(F)n2)CC1 [Example 181, (1s,4s)-4-((6′-((2-(1-(Cyclopropylsulfonyl)-1H-pyrazol-4-yl)pyrimidin-4-yl)amino)-6-fluoro-5-(trifluoromethyl)-[2,3′-bipyridin]-4′-yl)amino)-1-methylcyclohexan-1-ol]",–,–,–,–,–,–,–,–,–,–,157,16.2,41.5,5.5,10,2.2,20.3,129,> 10000,19.7
"C[C@]1(O)CC[C@@H](Nc2cc(Nc3ccnc(-c4cnn(S(=O)(=O)C5CC5)c4)n3)ncc2-c2cccc(CO)n2)CC1 [Example 27, (1s,4s)-4-((6′-((2-(1-(Cyclopropylsulfonyl)-1H-pyrazol-4-yl)pyrimidin-4-yl)amino)-6-(hydroxymethyl)-[2,3′-bipyridin]-4′-yl)amino)-1-methylcyclohexan-1-ol]",1.6,0.1,0.3,0.1,0.3,0.3,0.4,0.2,370,1.7,–,–,–,–,–,–,–,–,–,–
"COc1cnc(-c2cnc(Nc3ccnc(-c4cnn(S(=O)(=O)C5CC5)c4)n3)cc2N[C@H]2CC[C@@](C)(O)CC2)cn1 [Example 56, (1s,4s)-4-((2-((2-(1-(Cyclopropylsulfonyl)-1H-pyrazol-4-yl)pyrimidin-4-yl)amino)-5-(5-methoxypyrazin-2-yl)pyridin-4-yl)amino)-1-methylcyclohexan-1-ol]",122,–,8.8,5.9,1.4,–,2.4,–,> 10000,169,–,–,–,–,–,–,–,–,–,–
"CC(C)N1CCN(Cc2ccc(-c3cnc(Nc4ccnc(-c5cnn(S(=O)(=O)C6CC6)c5)n4)cc3N[C@H]3CC[C@@](C)(O)CC3)nc2)CC1 [Example 34, (1s,4s)-4-((6′-((2-(1-(Cyclopropylsulfonyl)-1H-pyrazol-4-yl)pyrimidin-4-yl)amino)-5-((4-isopropylpiperazin-1-yl)methyl)-[2,3′-bipyridin]-4′-yl)amino)-1-methylcyclohexan-1-ol]",0.2,0.1,0.4,0.2,0.6,0.6,0.3,0.1,61.1,0.5,–,–,–,–,–,–,–,–,–,–
"C[C@]1(O)CC[C@@H](Nc2cc(Nc3ccnc(-c4cnn(S(=O)(=O)C5CC5)c4)n3)ncc2-c2cc(NC3CC(F)(F)C3)ccn2)CC1 [Example 280, (1s,4s)-4-((6′-((2-(1-(Cyclopropylsulfonyl)-1H-pyrazol-4-yl)pyrimidin-4-yl)amino)-4-((3,3-difluorocyclobutyl)amino)-[2,3′-bipyridin]-4′-yl)amino)-1-methylcyclohexan-1-ol]",–,–,–,–,–,–,–,–,–,–,20.3,–,2.7,–,1,–,0.5,–,> 10000,–
